Reference: patent US7446127B2, “Chroman carboxylic acid derivatives for the treatment of diabetes and lipid disorders” (SK Holdings Co, Ltd., priority 2003, dated 2008)

How the values were obtained:
[1] = test system: differentiated 3T3-L1 adipocytes; assay: Glucose transport assay (2-deoxy-D-glucose uptake); type: cell-based
[2] = test system: HF rat; assay: Insulin tolerance test (ITT) in HF rat; type: in vivo, Sprague-Dawley rats; settings: 30 mg/kg oral, insulin 0.25 U/kg i.p. 2 hr later
Procedure: An Oral Glucose Tolerance Test (OGTT) was performed both in db/db mice and in high fat (HF) rats after dosing 30 mg/kg/d of compounds of Examples 1 and 2 for 9 days. For OGTT and ITT studies, Sprague-Dawley rats were prepared by feeding high fat (HF) diet (60% calorie from fat) for 6 weeks. Before the study, they were matched into groups on the basis of blood glucose levels. Insulin tolerance test (ITT) was performed in HF rat which were prepared in the same manner with OGTT test animal. On the day of the study, rats were orally dosed with the testing compounds (30 mg/kg) and 2 hr later, rats were dosed with insulin (0.25 U/kg, i.p.) in 0.1% BSA solution in saline. Blood glucose of the rat was measured at 15, 30, 60, 120 min after dose.

[3] = test system: differentiated 3T3-L1 adipocytes; assay: Glucose transport assay (2-deoxy-D-glucose uptake); type: cell-based; settings: 48 hr
Procedure: 3T3-L1 fibroblasts (American Type Culture Collection) were plated and grown for 2 days postconfluence in Dulbecco's modified Eagle's medium (DMEM; 4,500 mg/L glucose, HyClone) supplemented 10% FBS, 10 μg/mL penicillin and streptomycin in an atmosphere of 5% CO2 at 37° C. Adipocyte differentiation was then induced using standard protocol. After 48 hr, the differentiation medium was replaced with maintenance medium containing DMEM supplemented with 10% FBS. The maintenance medium was changed every 3 days until the cells were utilized for experimentation. Glucose transport activity was measured in the presence or absence of insulin and the protocol was modified from Kletzien, R F et al. (1992) Molecular Pharmacology 41:393-398. Briefly, differentiated 3T3-L1 adipocytes were incubated with vehicle (DMSO), insulin (100 nM) alone, test compound (50 μM) alone and a combination of insulin (100 nM)+test compound (50 μM) for 48 hr. Medium was changed twice a day in the presence of compound. Glucose uptake was measured using 2-Deoxy-D-[1−^3H] glucose as label after 90 min incubation with each compound. […] In the series of compounds, one of the best result was obtained with 7-[2-(5-methyl-2-phenyl-4-oxazolyl)-ethoxy]-chroman-3-carboxylic acid (Example 1).

[4] = test system: STZ rat; assay: Blood glucose lowering effect in STZ rat; type: in vivo; settings: STZ rat (data not shown)
[5] = Solubility in dosing vehicle; type: physicochemical
Excerpt: It appeared that compounds of Examples 1 and 2 were not soluble in 0.5% CMC vehicle.

[6] = test system: db/db mice; assay: Efficacy test for blood glucose lowering (db/db mice); type: in vivo; settings: 30 mg/kg/d oral
Procedure: (§1) Mice used in this study were standard model of type II diabetes developed by Jackson Laboratories (Bar Harbor, Me.). Male, 8-week-old db/db mice were housed six per cage in hanging wire bottom cages with standard laboratory conditions. The mice had free access to normal chow (Purina Rodent Chow) and water. At the age of 11-12 weeks, mice were bled in the tail for glucose matching among the groups (n=6 per group). The grouped mice were then dosed orally with vehicle (CMC) or with compounds of formula I (30 mg/kg/d) for 7 days. Compound of formula I at 30 mg/kg/d was dosed as suspension in 0.5% CMC+0.2% Tween 80 in H2O. Fresh suspension was prepared for 8 days dosing and kept in a refrigerator. The suspension was administered by oral gavage daily in the morning. The control group received vehicle (dose 10 mL/kg). Blood glucose concentrations were monitored at basal and 3 hr post dose on day 4 and 8. For blood sampling, mice were placed in a restrainer and drop of blood was obtained by nick in the tip of the tail. Blood glucose concentrations were determined either by putting a drop of blood on a glucose strip for analysis by a glucometer or using a 10 μL plasma sample in a YSI (Yellow Spring Instruments, OH) analyzer. Results are expressed as absolute blood glucose concentrations (mg/dL) and % reduction that is achieved reduction relative to vehicle treated control group. Animals having more than 300 mg/dL of blood glucose were used for testing. Statistical significance (p<0.05) is given versus the appropriate sample in vehicle treated animals. On day 7, the mice were fasted overnight for 18 hrs and were bled in the tail for the glucose level checking then dosed with the testing compounds (30 mg/kg/d). After 2 hr, blood samples were taken and the rats were dosed with 10% glucose in water (10 ml/kg) orally and blood glucose was monitored at 15, 30, 60, 90 and 120 min after dosing. The blood samples were centrifuged and plasma samples were collected and analyzed for insulin, Tg and FFA.

[7] = test system: high fat (HF) rats; assay: Oral Glucose Tolerance Test (OGTT) in high fat (HF) rats; type: in vivo, Sprague-Dawley rats; settings: 30 mg/kg/d for 9 days
Procedure: An Oral Glucose Tolerance Test (OGTT) was performed both in db/db mice and in high fat (HF) rats after dosing 30 mg/kg/d of compounds of Examples 1 and 2 for 9 days. For OGTT and ITT studies, Sprague-Dawley rats were prepared by feeding high fat (HF) diet (60% calorie from fat) for 6 weeks. Before the study, they were matched into groups on the basis of blood glucose levels.

[8] = test system: db/db mice; assay: Oral Glucose Tolerance Test (OGTT) in db/db mice; type: in vivo; settings: 30 mg/kg/d for 9 days
Procedure: as §1, with “FFA. An Oral Glucose Tolerance Test (OGTT) was performed both in db/db mice and in high fat (HF) rats after dosing 30 mg/kg/d of compounds of Examples 1 and 2 for 9 days. For OGTT and ITT studies, Sprague-Dawley rats were prepared by feeding high fat (HF) diet (60% calorie from fat) for 6 weeks. Before the study, they were matched into groups on the basis of blood glucose levels.” for “FFA.”

## Cc1oc(-c2ccccc2)nc1CCOc1ccc2c(c1)OCC(C(=O)O)C2 (centres unmarked) [Example 1, 7-[2-(5-Methyl-2-phenyl-4-oxazolyl)ethoxy]chromane-3-carboxylic acid]
[1]; 0-100 μM compound in the presence of 100 nM insulin (FIG. 2)
  glucose uptake, dose dependence on compound: dose-dependent manner
[1]; 50 μM compound, 0.1-1,000 nM insulin (FIG. 3)
  glucose uptake of insulin in presence of compound: further enhanced glucose uptake of insulin in dose dependent manner
[1]; 3T3-L1 adipocytes, no insulin, 0.1 to 100 μM
  stimulation of basal glucose uptake by compound per se: did not stimulate the basal glucose uptake
[2]
  AUC of Glucose in high fat rat, % reduction: 27.7 (p < 0.02) %
[2]; control 13359
  AUC of Glucose in high fat rat, Observed value: 11014 mg/dl × 120 min
[3]; 50 μM compound + 100 nM insulin
  Fold Stimulation (50 μM) of 2-deoxy-D-glucose uptake, Insulin + Compound: 8.4 fold
[3]; Mus musculus, 50 μM compound alone, read-out: Fold Stimulation (50 μM) of 2-deoxy-D-glucose uptake, Compound only
  fold induction at 50 µM: 1.3
[4]
  blood glucose lowering effect: did not reduce blood glucose
[5]
  solubility in 0.5% CMC vehicle: not soluble
[6]; plasma
  Fatty acid % reduction: −33.7%
  Insulin % reduction: −62.4%
[6]; suspension in 0.5% CMC + 0.2% Tween 80
  Glucose Max % efficacy: 80.0%
[6]; suspension in 0.5% CMC + 0.2% Tween 80, control 261.2
  Glucose Observed value: 132.2 mg/dL
[7]
  AUC of Glucose in high fat rat, % reduction: 13.1%
[7]; control 14053
  AUC of Glucose in high fat rat, Observed value: 12206 mg/dl × 120 min
[8]
  AUC of Glucose in db/db, % reduction: 41.5%
[8]; control 40858
  AUC of Glucose in db/db, Observed value: 28870 mg/dl × 120 min
